Experimental data as given in US8093266B2, “Rho kinase inhibitors” (Boehringer Ingelheim International GmbH, priority 2007, dated 2012).

Biological target: T1, ROCKII (1-543) kinase (Homo sapiens, UniProt O75116)
T1 construct: ROCKII (1-543) (62,408 Da) was diluted in assay buffer to a final concentration of 7.5 nM
Assay: Molecular assay: ROCKII (1-543) kinase activity, PKLight ATP detection (luciferin-luciferase, residual ATP)
Assay type: biochemical
Settings: 750 nM ATP, 500 nM peptide substrate, 7.5 nM kinase, 90 min at 28° C.; read-out: Rock2 IC50
Procedure: The activity of ROCKII (1-543) kinase was measured utilizing Cambrex PKLight ATP Detection Reagent, a homogeneous assay technology using luciferin-luciferase to quantify residual ATP. The assay was performed in 384-well low-volume, white, non-binding surface microtiter plates (Corning). The assay buffer was 25 mM HEPES, pH 7.5, 10 mM MgCl2, 50 mM KCl, 0.2% BSA, 0.01% CHAPS, 100 μM Na3VO4 and 0.5 mM DTT. Test compounds, dissolved in neat DMSO at 500 μg/mL, were serially diluted for dose response for a final starting concentration of 3 μg/mL in 1% DMSO of assay buffer. ROCKII (1-543) (62,408 Da) was diluted in assay buffer to a final concentration of 7.5 nM in a total volume of 15 μL. Positive controls were reaction mixtures containing no test compound; negative controls (blanks) were reaction mixtures containing no kinase. After 15 minutes of pre-incubation of the test compounds with the kinase, a mixture of ATP and peptide substrate ([…]) in assay buffer was added to each well for a final concentration of 750 nM ATP and 500 nM peptide, respectively. After 90 minutes of incubation of the kinase reaction at 28° C. temperature, 10 μL of PKLight ATP Detection Reagent (warmed to room temperature previously) was added to each well. The assay plate was incubated at room temperature for additional 15 minutes and then read on an Analyst in luminescence mode. Dose-response experiments for each of the test compounds were conducted in quadruplet. IC50 values of test compounds represent 50% response of the positive control from the dose-response curve.
Representative compounds of the present invention were tested for activity in this assay and all had IC50 values <10 μM. Preferred compounds have an IC50<1 μM and more preferred compounds have an IC50<0.1 μM in this assay. As examples the following data were obtained for the compounds named below: […]

T1 sequence (O75116 1-543): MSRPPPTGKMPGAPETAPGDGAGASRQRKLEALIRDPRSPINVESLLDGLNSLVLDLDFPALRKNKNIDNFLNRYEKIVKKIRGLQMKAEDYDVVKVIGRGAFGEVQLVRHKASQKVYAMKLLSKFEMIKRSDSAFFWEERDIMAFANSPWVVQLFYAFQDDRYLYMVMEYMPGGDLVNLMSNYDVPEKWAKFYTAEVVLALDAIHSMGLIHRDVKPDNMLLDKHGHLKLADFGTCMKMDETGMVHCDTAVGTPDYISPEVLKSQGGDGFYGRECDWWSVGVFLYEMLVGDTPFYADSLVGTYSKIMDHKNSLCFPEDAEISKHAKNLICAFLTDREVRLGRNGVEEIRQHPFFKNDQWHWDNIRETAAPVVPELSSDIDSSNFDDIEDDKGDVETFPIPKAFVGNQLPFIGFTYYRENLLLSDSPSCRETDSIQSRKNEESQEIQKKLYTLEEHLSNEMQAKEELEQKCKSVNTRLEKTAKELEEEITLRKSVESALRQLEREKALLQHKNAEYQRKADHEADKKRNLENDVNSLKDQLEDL

Compound	IC50 [nM]
COc1ccc(C(=O)NCc2cccc(C(=O)Nc3nc4c(s3)C[C@H](N(C)C)CC4)c2)cc1OC [N-[3-((R)-6-Dimethylamino-4,5,6,7-tetrahydro-benzothiazol-2-ylcarbamoyl)-benzyl]-3,4-dimethoxy-benzamide]	1
CN1CCc2nc(NC(=O)c3cccc(CNC(=O)Nc4ccc(C#N)cc4)c3)sc2C1 [3-[3-(4-Cyano-phenyl)-ureidomethyl]-N-(5-methyl-4,5,6,7-tetrahydro-thiazolo[5,4-c]pyridin-2-yl)-benzamide]	10
CCN1CCc2ccc(NC(=O)c3cccc(CNC(=O)c4ccc(OC)c(OC)c4)c3)cc2C1 [N-[3-(2-Ethyl-1,2,3,4-tetrahydro-isoquinolin-7-ylcarbamoyl)-benzyl]-3,4-dimethoxy-benzamide]	27
COc1ccc(C(=O)NCc2cccc(C(=O)Nc3ccc4c(c3)CNC4)c2)cc1OC [N-[3-(2,3-Dihydro-1H-isoindol-5-ylcarbamoyl)-benzyl]-3,4-dimethoxy-benzamide]	6
COc1ccc(C(=O)NCc2cccc(C(=O)Nc3ccc4c(c3)CC(N)C4)c2)cc1OC (centres unmarked) [N-[3-(2-Amino-indan-5-ylcarbamoyl)-benzyl]-3,4-dimethoxy-benzamide]	12
COc1ccc(C(=O)NCc2cccc(C(=O)Nc3nc4c(s3)CNCC4)c2)cc1Cl [3-Chloro-4-methoxy-N-[3-(4,5,6,7-tetrahydro-thiazolo[5,4-c]pyridin-2-ylcarbamoyl)-benzyl]-benzamide]	4
COc1ccc(C(=O)NCc2cccc(C(=O)Nc3ccc(CCN4CCCC4)cc3)c2)cc1C [4-Methoxy-3-methyl-N-{3-[4-(2-pyrrolidin-1-yl-ethyl)-phenylcarbamoyl]-benzyl}-benzamide]	120
COc1ccc(C(=O)NCc2cccc(C(=O)Nc3ncc(CCN4CCN(C)CC4)s3)c2)cc1OC [3,4-Dimethoxy-N-(3-{5-[2-(4-methyl-piperazin-1-yl)-ethyl]-thiazol-2-ylcarbamoyl}-benzyl)-benzamide]	20
COc1ccc(C(=O)NCc2cccc(NC(=O)c3nc4c(s3)CNCC4)c2)cc1OC [4,5,6,7-Tetrahydro-thiazolo[5,4-c]pyridine-2-carboxylic acid {3-[(3,4-dimethoxy-benzoylamino)-methyl]-phenyl}-amide]	22
COc1ccc(C(=O)NCc2cccc(C(=O)Nc3ccc4c(c3)CCNCC4)c2)cc1OC [3,4-Dimethoxy-N-[3-(2,3,4,5-tetrahydro-1H-benzo[d]azepin-7-ylcarbamoyl)-benzyl]-benzamide]	15
COCCN1CCc2ccc(NC(=O)c3cccc(CNC(=O)c4ccc(OC)c(OC)c4)c3)cc2C1 [3,4-Dimethoxy-N-{3-[2-(2-methoxy-ethyl)-1,2,3,4-tetrahydro-isoquinolin-7-ylcarbamoyl]-benzyl}-benzamide]	99
COc1ccc(C(=O)NCc2cccc(C(=O)Nc3cnc4c(c3)CN(C)CC4)c2)cc1OC [3,4-Dimethoxy-N-[3-(6-methyl-5,6,7,8-tetrahydro-[1,6]naphthyridin-3-ylcarbamoyl)-benzyl]-benzamide]	61
CCCN[C@H]1CCc2nc(N(CCOC)C(=O)c3cccc(CNC(=O)c4ccc(OC)c(Cl)c4)c3)sc2C1 [3-Chloro-4-methoxy-N-{3-[(2-methoxy-ethyl)-((S)-6-propylamino-4,5,6,7-tetrahydro-benzothiazol-2-yl)-carbamoyl]-benzyl}-benzamide]	72
COc1ccc(C(=O)NCc2cccc(C(=O)Nc3nc4c(s3)C[C@@H](N3CCOCC3)CC4)c2)cc1OC [3,4-Dimethoxy-N-[3-((S)-6-morpholin-4-yl-4,5,6,7-tetrahydro-benzothiazol-2-ylcarbamoyl)-benzyl]-benzamide]	1
CCCN[C@H]1CCc2nc(NC(=O)c3cccc(CNC(=O)c4ccc(OC)c(Cl)c4)c3)sc2C1 [3-Chloro-4-methoxy-N-[3-((S)-6-propylamino-4,5,6,7-tetrahydro-benzothiazol-2-ylcarbamoyl)-benzyl]-benzamide]	2
COc1ccc(C(=O)NCc2cccc(C(=O)Nc3nc4c(s3)C[C@@H](N3CCS(=O)(=O)CC3)CC4)c2)cc1OC [N-{3-[(S)-6-(1,1-Dioxo-thiomorpholin-4-yl)-4,5,6,7-tetrahydro-benzothiazol-2-ylcarbamoyl]-benzyl}-3,4-dimethoxy-benzamide]	13
COc1ccc(C(=O)NCc2cccc(C(=O)Nc3ccc(OCCN4CCOCC4)cc3)c2)cc1OC [3,4-Dimethoxy-N-{3-[4-(2-morpholin-4-yl-ethoxy)-phenylcarbamoyl]-benzyl}-benzamide]	58

Test system: not given
Assay: not given
Settings: long term treatment; cited from earlier work

Compound	coronary constrictive remodeling	coronary stenosis
O=S(=O)(c1cccc2cnccc12)N1CCCNCC1 [fasudil]	promote a regression of coronary constrictive remodeling	progressively reduce coronary stenosis

Test system: not given
Assay: not given
Settings: rat stroke model; cited from earlier work

Compound	infarct size and neurologic deficit
O=S(=O)(c1cccc2cnccc12)N1CCCNCC1 [fasudil]	reduce both the infarct size and neurologic deficit
